Values of other authors, collected in patent publication US6676963B1, “Ligand-targeted emulsions carrying bioactive agents” (Barnes-Jewish Hospital, priority 2000, dated 2004).
Read-outs that look alike come from different tables or passages of the source.

Details: for solubility in water / buffer (in words): water or aqueous buffer

solubility in water / buffer (in words)	solubility in lipid emulsions (in words) (lipid emulsions such as Intralipid or Liposyn)	solubility in water / buffer (in words) (listed as paclitaxel)	Compound
highly water soluble			COc1cccc2c1C(=O)c1c(O)c3c(c(O)c1C2=O)C[C@@](O)(C(=O)CO)C[C@@H]3O[C@H]1C[C@H](N)[C@H](O)[C@H](C)O1 [Doxorubicin, doxorubicin]
insoluble in water	insoluble in lipid emulsions	highly insoluble in buffer	CC(=O)O[C@H]1C(=O)[C@@]2(C)[C@H]([C@H](OC(=O)c3ccccc3)[C@]3(O)C[C@H](OC(=O)[C@H](O)[C@@H](NC(=O)c4ccccc4)c4ccccc4)C(C)=C1C3(C)C)[C@]1(OC(C)=O)CO[C@@H]1C[C@@H]2O [taxol, paclitaxel]
